Reference: paper PMC9853848 (Journal of the American Chemical Society, 2022)
Read-outs that look alike come from different tables or passages of the source.

Tests used:
P91 [1] = conditions: P91-R2; 25 °C, pH 8.0; covalent intermediate
P91 [2] = test system: T1, P91; format: biochemical, uncultured bacterium; conditions: read-out: KM (μM) ^b
T1 construct: full-length, N-terminal His6-tag, purified recombinant (E. coli); Cys118-His199-Asp167 triad

P91 [3] = target: T1, P91; format: biochemical, uncultured bacterium

Row | Structure (SMILES) | Km (P91 [1]) [µM] | Km (P91 [2]) [µM] | Ki (P91 [3]) [µM]
1 | CCOP(=O)(OCC)Oc1ccc([N+](=O)[O-])cc1 [compound 2, paraoxon-ethyl] | 290 | – | –
2 | CCOP(=O)(OCC)Oc1ccc2c(c1)Oc1cc(OP(=O)(OCC)OCC)ccc1C21OC(=O)c2ccccc21 [compound 1, FDDEP] | – | 46 ± 9.7 | 290 ± 89
